From patent publication US20120022121A1, “INDOLES, DERIVATIVES AND ANALOGS THEREOF AND USES THEREFOR” (priority 2007, published 2012)
“Also recorded” adds a separate entry of the source.

What was measured:
Bcl-2 = experiment: Western blot of anti- and pro-apoptosis proteins; type: cell-based, human; conditions: LNCaP and PC-3, increasing concentration, 24 h
Protocol: Cell viability (LNCaP, PC-3 prostate, DU145, PPC-1, and TSU-Pr1 prostate cancer cell lines, HT-29 colon cancer cell line, and MCF-7 breast cancer cell line) was quantitated using the sulforhodamine B (SRB) assay after 96 h coincubation with different concentrations of compound in 96-well plates. Cell viability of leukemia cells (K562 and doxorubicin-resistant K562/Dox) was quantitated by MTT assay after 96 h coincubation with different concentrations of compound in 96-well plates. Drug-induced apoptosis was determined by anti-histone ELISA assay and DNA laddering. Cell cycle progression was assessed by propidium iodide staining and fluorescence-activated cell sorting (FACS) analysis. In vitro tubulin polymerization assay was determined by CytoDYNAMIX ScreenTM3 (CDS-03) kits according to the manufacturer's instructions. Anti-apoptosis protein (Bcl-2 and Bcl-xl) and pro-apoptosis protein (Bax) were examined in LNCaP and PC-3 after 24 h incubation with different concentrations of compound 13 by Western blot assay. In vivo PC-3 xenograft studies were conducted by i.v. dosing of 50 mg/kg, 100 mg/kg and 150 mg/kg for 2 weeks.
100 nM of compound 13 was incubated with LNCaP for 24 h and PC-3 for 48 h. […] The results are expressed as enrichment factor (Enrichment factor=OD of treated cells/OD from control cells). […]

DU-145 = experiment: Cell viability SRB assay, 96 h; type: cell-based; conditions: Homo sapiens, DU-145, 96 h
How it was run: (§1)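 Compound, dissolved in DMSO and diluted into culture medium, was added at final concentrations from 0 to 100 μM to cells plated at line-dependent densities. After a 96 hour incubation at 37° C, viable cells were quantified by sulforhodamine B staining.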

PC-3 [1] = experiment: Cell viability SRB assay, 96 h; type: cell-based; conditions: Homo sapiens, PC-3, 96 h
How it was run: as §1

TSU = experiment: Cell viability SRB assay, 96 h; type: cell-based; conditions: Homo sapiens, TSU (TSU-Pr1)
How it was run: as §1

PPC-1 = experiment: Cell viability SRB assay, 96 h; type: cell-based; conditions: Homo sapiens, PPC-1, 96 h
How it was run: as §1

LNCaP = experiment: Cell viability SRB assay, 96 h; type: cell-based; conditions: Homo sapiens
How it was run: as §1

LNCaP cells = experiment: Cell cycle distribution (PI staining, FACS); type: cell-based, human; conditions: LNCaP cells, 0, 50, 100 and 200 nM, 24 h
Protocol: LNCaP cells were treated with 0, 50, 100 and 200 nM of compound 13 for 24 h (FIG. 11A). Cells were then harvested and fixed with 70% ethanol. Cell cycle distribution was determined by propidium iodide (P1) staining and analyzed by fluorescence-activated cell sorting (FACS) analysis.

PC-3 [2] = experiment: Growth inhibition assay (SRB, 96 h); type: cell-based, human; conditions: PC-3, 96 h
Text: (§2) MTT (3-(4,5-dimethylthiazol-2-yl)-2,5-diphenyltetrazolium bromide) assay was also used for the leukemia cell lines. […] Cells were stained with SRB solution or MTT solution.

[3] = tested on: human cancer cell lines from prostate, colon, breast, and bladder; experiment: Cell proliferation by SRB assay, panel of cell lines; type: cell-based; conditions: read-out: IC50 values, range over cell lines
Protocol: as §2
Cell proliferation was measured by SRB assay.

MES-SA xenografts = experiment: In vivo antitumor efficacy, MES-SA xenograft; parameters: species or system mice; conditions: q2d, i.p.
Protocol: (§3) The control group was treated with vehicle (10% DMSO in PEG300).

MCF-7 = experiment: Growth inhibition assay (SRB, 96 h); type: cell-based; conditions: Homo sapiens, MCF7; MCF-7, 96 h
Text: as §2

HT-29 = experiment: Growth inhibition assay (SRB, 96 h); type: cell-based; conditions: Homo sapiens, HT-29, 96 h
Text: as §2

TSU-Pr1 = experiment: Growth inhibition assay (SRB, 96 h); type: cell-based; conditions: Homo sapiens, TSU-Pr1, 96 h
Text: as §2

PC-3 cells = experiment: Cell cycle analysis (PI staining, FACS); type: cell-based, human; conditions: for percentage of PC-3 cells in G2M phase: 24 h; for EC50: Homo sapiens, 0.1 nM to 1 μM, read-out: EC50 of cell cycle arrest in G2M phase; for EC50 / percentage of sub-G1 phase: PC-3, 24 h
Protocol: Cell cycle distribution was determined by propidium iodide (PI) staining. Treated cells were washed with PBS and fixed with 70% ice-cold ethanol overnight. Fixed cells were then stained with 20 μg/mL of PI in the presence of RNase A (300 μg/mL) at 37° C. for 30 min. Cell cycle distribution was analyzed by fluorescence-activated cell sorting (FACS).

HEK293-pcDNA3.1 = experiment: Growth inhibition assay (96 h); type: cell-based, human; conditions: Homo sapiens, HEK293-pcDNA3.1 (control for MRP)
Text: as §2

MES-SA/DX5 = experiment: Growth inhibition assay (96 h); type: cell-based, human; conditions: for resistance factor (ratio of IC50 resistant subline to parental cell line): MES-SA/DX5 vs MES-SA (P-gp)
Text: as §2

Rotarod performance = type: in vivo, ICR mice
Protocol: The training and rotarod test was conducted as described previously. Briefly, during the training phase for 2 consecutive days (3 trials/day), mice (10 mice/group) were trained to run in a rotarod apparatus without falling at a constant speed (12 rpm) for a maximum of 2 min. For the rotarod performance test, duration of each trial was less than 5 min. […] Tests were performed for 2 weeks (2 days/week). The animals were tested in three trials per day with an intertrial interval of 30 min. Animal performance was recorded as the average elapsed time for the mice to fall off.

MES-SA/DX5 xenografts = experiment: In vivo antitumor efficacy, MES-SA/DX5 xenograft; conditions: for TGI (tumor growth inhibition): MES-SA/DX5 xenograft, q2d, i.p.
Protocol: as §3

PC-12 cells = experiment: PC-12 cell growth inhibition (SRB); type: cell-based
Text: as §2

SMILES	IC50 (DU-145) [nM]	IC50 (PC-3 [1]) [nM]	IC50 (TSU) [nM]	IC50 (PPC-1) [nM]	IC50 (LNCaP) [nM]	IC50 (PC-3 [2]; Homo sapiens) [nM]	IC50 [3] [nM]	IC50 (MCF-7) [nM]	IC50 (HT-29) [nM]	IC50 (TSU-Pr1) [nM]	EC50 (PC-3 cells) [nM]	IC50 (HEK293-pcDNA3.1) [nM]	resistance factor (ratio of IC50 resistant subline to parental cell line) (MES-SA/DX5)	IC70 value in PC-12 cell growth inhibition (PC-12 cells) [nM]	other results
O=C(c1cccc(-c2cc3ccccc3[nH]2)c1)c1cc2ccccc2[nH]1 [Compound 13, (1H-indol-2-yl)-[3-(1H-indol-2-yl)phenyl]methanone]	138 ± 12.6	81.1 ± 9.6	33.8 ± 1.8	67.3 ± 1.1	442 ± 2.4										Bcl-2 level by Western blot (Bcl-2): decreased; cell cycle arrest (LNCaP cells): induces G2/M phase arrest
COc1cc(C(=O)c2cccc(-c3cc4ccccc4[nH]3)c2)cc(OC)c1OC [Compound 68, [3-(1H-Indol-2-yl)-phenyl]-(3,4,5-trimethoxy-phenyl)-methanone]	23 ± 4.1	28 ± 2	18 ± 2.1	19 ± 1.5	13 ± 3.5	28	15.1 to 39.2	39.2 ± 2.9	15.1 ± 1.3	17.6 ± 2.1	34	23.8 ± 1.7	(1.0)	50	IC50 (PC-3 [2]): 28.2 ± 2 nM; TGI (tumor growth inhibition) (MES-SA xenografts; 5 mg/kg): 47%; TGI (tumor growth inhibition) (MES-SA xenografts; 10 mg/kg): 74%; percentage of PC-3 cells in G2M phase (PC-3 cells; 10 nM (control 19)): 24%; percentage of PC-3 cells in G2M phase (PC-3 cells; 50 nM (control 19)): 63%; percentage of PC-3 cells in G2M phase (PC-3 cells; 100 nM (control 19)): 77%; percentage of sub-G1 phase (PC-3 cells; 10 nM (control 0.2)): 0.5%; percentage of sub-G1 phase (PC-3 cells; 50 nM (control 0.2)): 0.7%; percentage of sub-G1 phase (PC-3 cells; 100 nM (control 0.2)): 1.3%; IC50 (MES-SA/DX5; Homo sapiens, MES-SA/DX5, P-gp over-expressed, 96 h): 32.3 ± 8.2 nM; rotarod performance (Rotarod performance; 10 mg/kg i.p. q2d, 2 weeks, vs vehicle control): did not show impaired rotarod performance; also recorded: no loss of function; general toxicity and body weight loss (MES-SA/DX5 xenografts; MES-SA and MES-SA/DX5 xenograft mice, 5 or 10 mg/kg): did not induce any general toxicity or significant body weight loss; TGI (tumor growth inhibition) (MES-SA/DX5 xenografts; 5 mg/kg): 47%; TGI (tumor growth inhibition) (MES-SA/DX5 xenografts; 10 mg/kg): 76%
CC[C@]1(O)C[C@@H]2CN(CCc3c([nH]c4ccccc34)[C@@](C(=O)OC)(c3cc4c(cc3OC)N(C)[C@H]3[C@@](O)(C(=O)OC)[C@H](OC(C)=O)[C@]5(CC)C=CCN6CC[C@]43[C@@H]65)C2)C1 [Vinblastine]						1	1.1 to 6.3	1.4 ± 0.4	2.4 ± 0.2	1.6 ± 0.1	7	5 ± 1	(20)	5	TGI (tumor growth inhibition) (MES-SA xenografts; 0.5 mg/kg): 48%; rotarod performance (Rotarod performance; 0.5 mg/kg i.p. q2d, day 4 to day 14): impaired performance; mean time on the rotating rod (Rotarod performance; 0.5 mg/kg i.p. q2d, end of 2 weeks (vehicle 151 s)): 121 s; TGI (tumor growth inhibition) (MES-SA/DX5 xenografts; 0.5 mg/kg): 24%
